In the CheMixHub viscosity set:

Assay: xn = mol fraction of the nth substance listed

C1CCC2CCCCC2C1 (configuration not stated) + C1CCCCC1
298.15 K, 101 kPa
Conditions | viscosity [mPa·s]
x1 = 0.1473 | 1.061
x1 = 0.3151 | 1.26
x1 = 0.5054 | 1.48
x1 = 0.7334 | 1.77

CCCCCCCC + C1CCCCC1
Conditions | viscosity [mPa·s]
298.15 K, 100 kPa, x2 = 0.2 | 0.5398
298.15 K, 100 kPa, x2 = 0.4 | 0.5777
298.15 K, 100 kPa, x2 = 0.6 | 0.6273
298.15 K, 100 kPa, x2 = 0.8 | 0.7162
298.15 K, 101.33 kPa, x2 = 0.0972 | 0.516
298.15 K, 101.33 kPa, x2 = 0.1084 | 0.5318
298.15 K, 101.33 kPa, x2 = 0.2042 | 0.53
298.15 K, 101.33 kPa, x2 = 0.2223 | 0.549
298.15 K, 101.33 kPa, x2 = 0.3014 | 0.548
298.15 K, 101.33 kPa, x2 = 0.3199 | 0.569
298.15 K, 101.33 kPa, x2 = 0.4044 | 0.568
298.15 K, 101.33 kPa, x2 = 0.412 | 0.5851
298.15 K, 101.33 kPa, x2 = 0.5009 | 0.607
298.15 K, 101.33 kPa, x2 = 0.5017 | 0.591
298.15 K, 101.33 kPa, x2 = 0.5763 | 0.628
298.15 K, 101.33 kPa, x2 = 0.6029 | 0.62
298.15 K, 101.33 kPa, x2 = 0.6597 | 0.6568
298.15 K, 101.33 kPa, x2 = 0.7041 | 0.661
298.15 K, 101.33 kPa, x2 = 0.7236 | 0.6788
298.15 K, 101.33 kPa, x2 = 0.7926 | 0.7148
298.15 K, 101.33 kPa, x2 = 0.8014 | 0.705
298.15 K, 101.33 kPa, x2 = 0.8586 | 0.8162
298.15 K, 101.33 kPa, x2 = 0.8971 | 0.774
298.15 K, 101.33 kPa, x2 = 0.9173 | 0.8737
298.15 K, 101.33 kPa, x2 = 0.9767 | 0.8737
303.15 K, 101 kPa, x2 = 0.1031 | 0.4956
303.15 K, 101 kPa, x2 = 0.1978 | 0.51
303.15 K, 101 kPa, x2 = 0.2979 | 0.5238
303.15 K, 101 kPa, x2 = 0.4018 | 0.5434
303.15 K, 101 kPa, x2 = 0.4842 | 0.5614
303.15 K, 101 kPa, x2 = 0.7004 | 0.6348
303.15 K, 101 kPa, x2 = 0.8984 | 0.7473
303.15 K, 101.33 kPa, x2 = 0.0972 | 0.487
303.15 K, 101.33 kPa, x2 = 0.2042 | 0.498
303.15 K, 101.33 kPa, x2 = 0.3014 | 0.515
303.15 K, 101.33 kPa, x2 = 0.4044 | 0.533
303.15 K, 101.33 kPa, x2 = 0.5017 | 0.554
303.15 K, 101.33 kPa, x2 = 0.6029 | 0.581
303.15 K, 101.33 kPa, x2 = 0.7041 | 0.614
303.15 K, 101.33 kPa, x2 = 0.8014 | 0.656
303.15 K, 101.33 kPa, x2 = 0.8971 | 0.717
308.15 K, 101.33 kPa, x2 = 0.0972 | 0.459
308.15 K, 101.33 kPa, x2 = 0.2042 | 0.469
308.15 K, 101.33 kPa, x2 = 0.3014 | 0.483
308.15 K, 101.33 kPa, x2 = 0.4044 | 0.501
308.15 K, 101.33 kPa, x2 = 0.5017 | 0.518
308.15 K, 101.33 kPa, x2 = 0.6029 | 0.543
308.15 K, 101.33 kPa, x2 = 0.7041 | 0.573
308.15 K, 101.33 kPa, x2 = 0.8014 | 0.608
308.15 K, 101.33 kPa, x2 = 0.8971 | 0.664
323.15 K, 100 kPa, x2 = 0.2 | 0.4103
323.15 K, 100 kPa, x2 = 0.4 | 0.4326
323.15 K, 100 kPa, x2 = 0.6 | 0.4655
323.15 K, 100 kPa, x2 = 0.8 | 0.5138

CCCCCCCCCCCCCC + C1CCCCC1
298.15 K, 101.33 kPa
Conditions | viscosity [mPa·s]
x1 = 0.0144 | 0.9238
x2 = 0.1743 | 1.907
x2 = 0.3074 | 1.756
x2 = 0.4253 | 1.621
x2 = 0.5304 | 1.486
x2 = 0.6125 | 1.384
x2 = 0.6841 | 1.291
x2 = 0.7505 | 1.207
x2 = 0.8066 | 1.131
x2 = 0.8651 | 1.064
x2 = 0.9088 | 1.01
x2 = 0.9483 | 0.9646

CCCCCO + C1CCCCC1
Conditions | viscosity [mPa·s]
293.15 K, 100 kPa, x2 = 0.0815 | 3.56
293.15 K, 100 kPa, x2 = 0.1623 | 3.17
293.15 K, 100 kPa, x2 = 0.2416 | 2.81
293.15 K, 100 kPa, x2 = 0.3481 | 2.37
293.15 K, 100 kPa, x2 = 0.4401 | 2.06
293.15 K, 100 kPa, x2 = 0.5592 | 1.69
293.15 K, 100 kPa, x2 = 0.6501 | 1.46
293.15 K, 100 kPa, x2 = 0.7414 | 1.28
293.15 K, 100 kPa, x2 = 0.8502 | 1.1
293.15 K, 100 kPa, x2 = 0.9414 | 1.02
298.15 K, 101 kPa, x1 = 0.0229 | 0.889
298.15 K, 101 kPa, x1 = 0.0543 | 0.908
298.15 K, 101 kPa, x1 = 0.14 | 0.991
298.15 K, 101 kPa, x1 = 0.2319 | 1.064
298.15 K, 101 kPa, x1 = 0.3975 | 1.326
298.15 K, 101 kPa, x1 = 0.5045 | 1.548
298.15 K, 101 kPa, x1 = 0.6384 | 1.974
298.15 K, 101 kPa, x1 = 0.7129 | 2.264
298.15 K, 101 kPa, x1 = 0.8283 | 2.738
298.15 K, 101 kPa, x1 = 0.904 | 3.066
303.15 K, 100 kPa, x2 = 0.0815 | 2.7
303.15 K, 100 kPa, x2 = 0.1623 | 2.41
303.15 K, 100 kPa, x2 = 0.2416 | 2.15
303.15 K, 100 kPa, x2 = 0.3481 | 1.84
303.15 K, 100 kPa, x2 = 0.4401 | 1.61
303.15 K, 100 kPa, x2 = 0.5592 | 1.34
303.15 K, 100 kPa, x2 = 0.6501 | 1.18
303.15 K, 100 kPa, x2 = 0.7414 | 1.05
303.15 K, 100 kPa, x2 = 0.8502 | 0.92
303.15 K, 100 kPa, x2 = 0.9414 | 0.85
303.15 K, 101 kPa, x1 = 0.6491 | 1.531
303.15 K, 101.33 kPa, x1 = 0.0977 | 0.8877
303.15 K, 101.33 kPa, x1 = 0.2165 | 0.9922
303.15 K, 101.33 kPa, x1 = 0.3008 | 1.095
303.15 K, 101.33 kPa, x1 = 0.4012 | 1.222
303.15 K, 101.33 kPa, x1 = 0.5004 | 1.388
303.15 K, 101.33 kPa, x1 = 0.6025 | 1.586
303.15 K, 101.33 kPa, x1 = 0.7049 | 1.823
303.15 K, 101.33 kPa, x1 = 0.7922 | 2.076
303.15 K, 101.33 kPa, x1 = 0.9023 | 2.447
308.15 K, 101 kPa, x1 = 0.0229 | 0.757
308.15 K, 101 kPa, x1 = 0.0543 | 0.772
308.15 K, 101 kPa, x1 = 0.14 | 0.822
308.15 K, 101 kPa, x1 = 0.2319 | 0.894
308.15 K, 101 kPa, x1 = 0.3975 | 1.078
308.15 K, 101 kPa, x1 = 0.5045 | 1.248
308.15 K, 101 kPa, x1 = 0.6384 | 1.537
308.15 K, 101 kPa, x1 = 0.6491 | 1.452
308.15 K, 101 kPa, x1 = 0.7129 | 1.732
308.15 K, 101 kPa, x1 = 0.8283 | 2.09
308.15 K, 101 kPa, x1 = 0.904 | 2.335
313.15 K, 100 kPa, x2 = 0.0815 | 2.08
313.15 K, 100 kPa, x2 = 0.1623 | 1.88
313.15 K, 100 kPa, x2 = 0.2416 | 1.7
313.15 K, 100 kPa, x2 = 0.3481 | 1.47
313.15 K, 100 kPa, x2 = 0.4401 | 1.3
313.15 K, 100 kPa, x2 = 0.5592 | 1.11
313.15 K, 100 kPa, x2 = 0.6501 | 0.98
313.15 K, 100 kPa, x2 = 0.7414 | 0.88
313.15 K, 100 kPa, x2 = 0.8502 | 0.78
313.15 K, 100 kPa, x2 = 0.9414 | 0.72
313.15 K, 101 kPa, x1 = 0.6491 | 1.327
318.15 K, 101 kPa, x1 = 0.0229 | 0.649
318.15 K, 101 kPa, x1 = 0.0543 | 0.658
318.15 K, 101 kPa, x1 = 0.14 | 0.694
318.15 K, 101 kPa, x1 = 0.2319 | 0.758
318.15 K, 101 kPa, x1 = 0.3975 | 0.883
318.15 K, 101 kPa, x1 = 0.5045 | 1.01
318.15 K, 101 kPa, x1 = 0.6384 | 1.227
318.15 K, 101 kPa, x1 = 0.7129 | 1.364
318.15 K, 101 kPa, x1 = 0.8283 | 1.628
318.15 K, 101 kPa, x1 = 0.904 | 1.802
323.15 K, 100 kPa, x2 = 0.0815 | 1.64
323.15 K, 100 kPa, x2 = 0.1623 | 1.49
323.15 K, 100 kPa, x2 = 0.2416 | 1.36
323.15 K, 100 kPa, x2 = 0.3481 | 1.2
323.15 K, 100 kPa, x2 = 0.4401 | 1.08
323.15 K, 100 kPa, x2 = 0.5592 | 0.94
323.15 K, 100 kPa, x2 = 0.6501 | 0.85
323.15 K, 100 kPa, x2 = 0.7414 | 0.77
323.15 K, 100 kPa, x2 = 0.8502 | 0.69
323.15 K, 100 kPa, x2 = 0.9414 | 0.63
